The term melting point denotes the temperature, or range, at which the solid turns liquid. Usually pEC50 stands for the EC50 on a negative log10 scale, so that one unit is a factor of ten.

pEC50: −log10 of the molar value.

Data set [1] has as its target T1, muscarinic M1 receptor (Homo sapiens, UniProt P11229).
T1 construct: expressed in transfected cells; host or cells: CHO (M1-CHO cells)
T1 sequence (P11229 1-460): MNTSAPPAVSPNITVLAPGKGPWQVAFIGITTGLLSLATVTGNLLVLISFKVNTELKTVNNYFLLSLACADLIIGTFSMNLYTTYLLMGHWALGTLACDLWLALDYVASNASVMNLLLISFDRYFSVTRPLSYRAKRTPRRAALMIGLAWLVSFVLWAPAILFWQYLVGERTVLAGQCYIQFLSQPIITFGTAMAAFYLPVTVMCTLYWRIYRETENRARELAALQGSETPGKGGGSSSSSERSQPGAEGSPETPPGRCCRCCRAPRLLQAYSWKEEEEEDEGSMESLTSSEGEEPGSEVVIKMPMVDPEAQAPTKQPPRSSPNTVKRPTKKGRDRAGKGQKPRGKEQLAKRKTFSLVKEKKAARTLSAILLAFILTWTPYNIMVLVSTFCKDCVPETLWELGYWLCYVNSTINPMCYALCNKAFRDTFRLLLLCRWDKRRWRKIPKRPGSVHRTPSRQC
In words: M1 PAM Assay (IP-One HTRF, IP1 in M1-CHO cells with EC20 of acetylcholine). The class given is cell-based. To be noted: 1 hour at room temperature, IP1 readout. As to the method: M1-CHO cells are plated in culture medium (HAM's F12, P/S, 10% FCS) on the day before the experiment with 10 000 cells/well in a 384 well plate (3750 Corning White 384 w plate with lid). On the day of experiment, cells are washed with PBS and IPone buffer is added (glucose 5.5 mM, NaCl 146 mM, MgCl2 0.5 mM, HEPES 10 mM, LiCl 50 mM, CaCl2 1 mM, KCl 4.2 mM). Then diluted compounds (1% DMSO final concentration) are added together with EC20 of acetylcholine and incubated with the cells for 1 hour at room temperature. The intracellular concentration of IP1 is then measured using the IP-One HTRF assay from Cisbio.
Background: TR-FRET usually uses a lanthanide donor and a delayed reading to cut background.

`Cc1nc2c3c(nn2c(C)c1Cl)CN(C(=O)c1ccccc1CN1CCCC(N)C1)C3` (centres unmarked) [Example 125, [2-(3-amino-piperidin-1-ylmethyl)-phenyl]-(6-chloro-5,7-dimethyl-1H,3H-2,4,7a,8-tetraaza-cyclopenta[a]inden-2-yl)-methanone]: the melting point was in the range of 165 to 170 °C.
Compound `Cc1nc2c3c(nn2c(C)c1Cl)CN(C(=O)c1ccccc1OC(F)(F)F)C3` [Example 14, (6-chloro-5,7-dimethyl-1H,3H-2,4,7a,8-tetraaza-cyclopenta[a]inden-2-yl)-(2-trifluoromethoxy-phenyl)-methanone] yielded a melting point of 179 to 181 °C. This compound gave a pEC50 in data set [1] of 6.00 to 6.70.
In turn, `Cc1nc2c3c(nn2c(C)c1Cl)CN(C(=O)c1ccccc1CN1CCCN(C)CC1)C3` [Example 95, (6-Chloro-5,7-dimethyl-1H,3H-2,4,7a,8-tetraaza-cyclopenta[a]inden-2-yl)-[2-(4-methyl-[1,4]diazepan-1-ylmethyl)-phenyl]-methanone] yielded a melting point of 138 to 141 °C.
In turn, `Cc1nc2c3c(nn2c(C)c1C)CN(C(=O)c1ccccc1OCCN(C)C)C3` [Example 22, [2-(2-dimethylamino-ethoxy)-phenyl]-(5,6,7-trimethyl-1H,3H-2,4,7a,8-tetraaza-cyclopenta[a]inden-2-yl)-methanone] showed a melting point of 148 to 150 °C. This compound also gave a pEC50 in data set [1] of 6.00 to 6.70.
As for `CCOc1ccccc1C(=O)N1Cc2nn3c(C)c(Cl)c(C)nc3c2C1` [Example 10], the melting point was in the range of 164 to 167 °C. Also, the pEC50 in data set [1] is 6.00 to 6.70.
The compound `Cc1nc2c3c(nn2c(C)c1Cl)CN(C(=O)c1ccccc1CN1CCC(O)C1)C3` (centres unmarked) [Example 72, (6-chloro-5,7-dimethyl-1H,3H-2,4,7a,8-tetraaza-cyclopenta[a]inden-2-yl)-[2-(3-hydroxy-pyrrolidin-1-ylmethyl)-phenyl]-methanone] displayed a melting point of 210 to 217 °C.
In turn, `Cc1nc2c3c(nn2c(C)c1Cl)CN(C(=O)c1ccccc1CN1CCN2CCCC2C1)C3` (centres unmarked) [Example 97, (6-chloro-5,7-dimethyl-1H,3H-2,4,7a,8-tetraaza-cyclopenta[a]inden-2-yl)-[2-(hexahydro-pyrrolo[1,2-a]pyrazin-2-ylmethyl)-phenyl]-methanone] had a melting point of 180 to 182 °C.
`O=C(c1ccccc1OC(F)(F)C(F)F)N1Cc2nn3cc(Cl)cnc3c2C1` [Example 106, (6-chloro-1H,3H-2,4,7a,8-tetraaza-cyclopenta[a]inden-2-yl)-[2-(1,1,2,2-tetrafluoro-ethoxy)-phenyl]-methanone] gave a melting point of 194 to 196 °C.
With `Cc1nc2c3c(nn2c(C)c1Cl)CN(C(=O)c1ccccc1CN1C[C@H]2CN(C)C[C@H]2C1)C3` [Example 94, (6-chloro-5,7-dimethyl-1H,3H-2,4,7a,8-tetraaza-cyclopenta[a]inden-2-yl)-[2-((3aR,6aS)-5-methyl-hexahydro-pyrrolo[3,4-c]pyrrol-2-ylmethyl)-phenyl]-methanone], the melting point is 174 to 177 °C.
In turn, `Cc1nc2c3c(nn2c(C)c1Cl)CN(C(=O)c1ccccc1CN(CCN(C)C)CC(F)(F)F)C3` [Example 154, (6-chloro-5,7-dimethyl-1H,3H-2,4,7a,8-tetraaza-cyclopenta[a]inden-2-yl)-(2-{[(2-dimethylamino-ethyl)-(2,2,2-trifluoro-ethyl)-amino]-methyl}-phenyl)-methanone] came in with a melting point of 168 to 174 °C.
`Cc1nc2c3c(nn2c(C)c1Cl)CN(C(=O)c1ccccc1OCCN(C)C)C3` [Example 8, (6-chloro-5,7-dimethyl-1H,3H-2,4,7a,8-tetraaza-cyclopenta[a]inden-2-yl)-[2-(2-dimethylamino-ethoxy)-phenyl]-methanone] had a melting point of 156 to 159 °C. In addition, the pEC50 in data set [1] was 6.00 to 6.70.
For the compound `O=C(c1ccc(F)cc1OC(F)(F)C(F)F)N1Cc2nn3cc(Cl)cnc3c2C1` [Example 138, (6-chloro-1H,3H-2,4,7a,8-tetraaza-cyclopenta[a]inden-2-yl)-[4-fluoro-2-(1,1,2,2-tetrafluoro-ethoxy)-phenyl]-methanone], the melting point fell in the range of 208 to 210 °C.
Turning to `Cc1nc2c3c(nn2c(C)c1Cl)CN(C(=O)c1ccccc1OCC(C)C)C3` [Example 30, (6-Chloro-5,7-dimethyl-1H,3H-2,4,7a,8-tetraaza-cyclopenta[a]inden-2-yl)-(2-isobutoxy-phenyl)-methanone], the melting point was in the range of 184 to 187 °C. This compound also had a pEC50 in data set [1] of 5.70 to 6.00.
`COc1c(F)cc(F)cc1C(=O)N1Cc2nn3c(C)c(Cl)c(C)nc3c2C1` [Example 16, (6-chloro-5,7-dimethyl-1H,3H-2,4,7a,8-tetraaza-cyclopenta[a]inden-2-yl)-(3,5-difluoro-2-methoxy-phenyl)-methanone] displayed a melting point of 185 to 187 °C. The same compound showed a pEC50 in data set [1] of 6.00 to 6.70.
In the same order, the values of `CSCCOc1ccccc1C(=O)N1Cc2nn3c(C)c(Cl)c(C)nc3c2C1` [Example 15, (6-chloro-5,7-dimethyl-1H,3H-2,4,7a,8-tetraaza-cyclopenta[a]inden-2-yl)-[2-(2-methylsulfanyl-ethoxy)-phenyl]-methanone] are 183 to 185 °C and 6.00 to 6.70.
In turn, `Cc1nc2c3c(nn2c(C)c1Cl)CN(C(=O)c1ccccc1CN1CCNCC1=O)C3` [Example 117, 1-[2-(6-chloro-5,7-dimethyl-1H,3H-2,4,7a,8-tetraaza-cyclopenta[a]indene-2-carbonyl)-benzyl]-piperazin-2-one] yielded a melting point of 176 to 183 °C.
As for `Cc1nc2c3c(nn2c(C)c1Cl)CN(C(=O)c1ccccc1CN1CC(N(C)C)C1)C3` [Example 126, (6-chloro-5,7-dimethyl-1H,3H-2,4,7a,8-tetraaza-cyclopenta[a]inden-2-yl)-[2-(3-dimethylamino-azetidin-1-ylmethyl)-phenyl]-methanone], the melting point lay in the range of 159 to 162 °C.
Take `CCCCOc1ccccc1C(=O)N1Cc2nn3c(C)c(Cl)c(C)nc3c2C1` [Example 11, (2-butoxy-phenyl)-(6-chloro-5,7-dimethyl-1H,3H-2,4,7a,8-tetraaza-cyclopenta[a]inden-2-yl)-methanone]: the melting point is 167 to 169 °C. In addition, the pEC50 in data set [1] was 6.00 to 6.70.
For the compound `CC(C)Oc1ccccc1C(=O)N1Cc2nn3cc(Cl)cnc3c2C1` [Example 42, (6-chloro-1H,3H-2,4,7a,8-tetraaza-cyclopenta[a]inden-2-yl)-(2-isopropoxy-phenyl)-methanone], the melting point lay within 160 to 161 °C. Moreover, the negative-log EC50 (pEC50) in data set [1] was 5.70 to 6.00.
The compound `Cc1nc2c3c(nn2c(C)c1Cl)CN(C(=O)c1ccccc1CN1CCNC(C)C1)C3` (centres unmarked) [Example 116, (6-chloro-5,7-dimethyl-1H,3H-2,4,7a,8-tetraaza-cyclopenta[a]inden-2-yl)-[2-(3-methyl-piperazin-1-ylmethyl)-phenyl]-methanone] had a melting point of 195 to 200 °C.
On to `Cc1nc2c3c(nn2c(C)c1Cl)CN(C(=O)c1ccccc1CN1CCC(O)(C(F)(F)F)CC1)C3` [Example 90, (6-chloro-5,7-dimethyl-1H,3H-2,4,7a,8-tetraaza-cyclopenta[a]inden-2-yl)-[2-(4-hydroxy-4-trifluoromethyl-piperidin-1-ylmethyl)-phenyl]-methanone], for which the melting point lay within 223 to 227 °C.
`CCOc1c(F)cc(F)cc1C(=O)N1Cc2nn3c(C)c(Cl)c(C)nc3c2C1` [Example 28, (6-chloro-5,7-dimethyl-1H,3H-2,4,7a,8-tetraaza-cyclopenta[a]inden-2-yl)-(2-ethoxy-3,5-difluoro-phenyl)-methanone] gave a melting point of 153 to 155 °C. In data set [1], the pEC50 is 5.70 to 6.00.
On to `CCOc1ccc(Br)cc1C(=O)N1Cc2nn3c(C)c(C)c(C)nc3c2C1` [Example 45, (5-bromo-2-ethoxy-phenyl)-(5,6,7-trimethyl-1H,3H-2,4,7a,8-tetraaza-cyclopenta[a]inden-2-yl)-methanone], for which the melting point was in the range of 208 to 215 °C. Besides, the pEC50 in data set [1] was 5.70 to 6.00.
`Cc1nc2c3c(nn2c(C)c1Cl)CN(C(=O)c1ccccc1CN1CCCNCC1)C3` [Example 118, (6-chloro-5,7-dimethyl-1H,3H-2,4,7a,8-tetraaza-cyclopenta[a]inden-2-yl)-(2-[1,4]diazepan-1-ylmethyl-phenyl)-methanone] displayed a melting point of 185 to 192 °C.
